Patent publication US10934346B2, “Modified T cell comprising a polynucleotide encoding an inducible stimulating molecule comprising MyD88, CD40 and FKBP12” (priority 2014, dated 2021)

What was measured:
B16-F10 melanoma cells = assay: IL-6 ELISA of adenovirus-transduced B16-F10 melanoma cells with AP1903; type: cell-based
Method: Adenoviruses were added at 1000, 2000, 4000, 8000 and 16000 virus/cell ratio and cells were incubated for 24 hours. Then, 100 nM of AP1903 was added to all the wells, and the following day the cells and culture supernatants were harvested. A. Cells were labeled with anti-human PSMA antibody, LNI-17, (Biolegend, San Diego, Calif.) and PSMA expression was analyzed by flow cytometry. Represented is the percentage of PSMA^+ cells when compared to non-transduced cells. B. IL-6 was evaluated from the culture supernatants by ELISA (e-Bioscience, San Diego, Calif.). FIG. 28 provides the results of the assay at a different multiplicity of infection and plating concentration. B16 melanomas were cultured at 50,000 cells/ml/well in 24-well plates. Adenoviruses were added at 6000, 12000, 18000, 24000 and 30000 virus/cell ratio and cells were incubated for 24 hours. Then, 100 nM of AP1903 was added to all the wells, and the following day the cells and culture supernatants were harvested. A. Cells were labeled with anti-human PSMA antibody, LNI-17, (Biolegend, San Diego, Calif.) and PSMA expression was analyzed by flow cytometry. Represented is the percentage of PSMA^+ cells when compared to non-transduced cells. B. IL-6 was evaluated from the culture supernatants by ELISA (e-Bioscience, San Diego, Calif.). […] IL-6 was evaluated from the culture supernatants by ELISA (e-Bioscience, San Diego, Calif.)

iMC-expressing T cells = assay: Survival and growth of iMC-transduced T cells with weekly rimiducid, with or without IL-2; type: cell-based, human
Method: FIGS. 8A-8C provide assay results of iMC signaling in primary T cells induces cell survival in the absence of IL-2. FIG. 8A and FIG. 8B) FKBP and iMC transduced T cells were cultured in media supplemented with or without 100 U/ml IL-2 and stimulated on a weekly basis with 10 nM rimiducid (CID) and measured for growth by cell counting. FIG. 8C) iMC-modified T cells cultured in media without IL-2, with and without CID stimulation, were measured for viability by flow cytometry (SSC, FSC) after 42 days in culture. * indicates p-value <0.05.
The phosphorylation of key downstream signaling molecules, including JNK, Akt, RelA, ERK and p38 MAPK was measured in the induced iMC T cells.

IC-21 macrophages = assay: IL-6 ELISA of adenovirus-transduced IC-21 macrophages with AP1903; type: cell-based
Text: Inducible chimeric polypeptides of the present application were expressed in various cell types along with a tumor antigen. […] Cell lines included keratinocytes, melanocytes (for example, B16-F10 melanoma), macrophages (for example, IC-21), and fibroblasts (for example, BLK-CL4). FIG. 22 provides a schematic overview of the process by which expression of the chimeric polypeptide, after contacting AP1903, can induce the expression of inflammatory cytokines and chemokines in the transduced cell. FIG. 23 provides a schematic of an assay used to measure PSMA expression and cytokine secretion in transduced cells. The cells were transduced with one of four adenovirus Ad5 vectors: Ad5-iMC-RP-FL; Ad5-iMC-P2A-P-FL; Ad5f35iMC-RP-FL; or Ad5f35iMC-P2A-FL. […] IC-21 macrophages were cultured at 100,000 cells/ml/well in 24-well plates. […] A. Cells were labeled with anti-human PSMA antibody, LNI-17, (Biolegend, San Diego, Calif.) and PSMA expression was analyzed by flow cytometry. […] B. IL-6 was evaluated from the culture supernatants by ELISA (e-Bioscience, San Diego, Calif.). […] A. Cells were labeled with anti-human PSMA antibody, LNI-17, (Biolegend, San Diego, Calif.) and PSMA expression was analyzed by flow cytometry. […] B. IL-6 was evaluated from the culture supernatants by ELISA (e-Bioscience, San Diego, Calif.). […] IL-6 was evaluated from the culture supernatants by ELISA (e-Bioscience, San Diego, Calif.).

[1] = test system: T cells transduced with RV-172 (iMC); assay: AP1903-induced T cell activation, 27-plex cytokine/chemokine bead array; type: cell-based, human; details: 10 nM AP1903, 24 hours, RV-172 T cells
Method: 5. To assess AP1903-dependent T cell activation of T cells, 1×10^5 non-transduced (NT) or T cells transduced with the control retrovirus (RV-171) or the retrovirus containing iMC (RV-172) were plated in triplicate in 96-well plates and cultured at 37° C. 5% CO2 with media alone, or media containing 10 nM AP1903. 6. After 24 hours, the cells were gently mixed and the plate was centrifuged. Supernatant was then collected and plated into a BIOPLEX Human Cytokine/Chemokine 27-plex plate, which measures the following cytokines and chemokines: • a. Basic-FGF, G-CSF, GM-CSF, IFN-gamma, IL-1Ra, IL-1beta, IL-2, IL-4, IL-5, IL-6, […], IL-7, […], IL-9, IL-10, IL-12p70, IL-13, IL-15, IL-17RA, eotaxin, IP10, MCP-1, MIP-1alpha, MIP-1beta, PDGF-bb, RANTES, TNF-alpha and VEGF. • b. The cytokines and chemokines in the supernatants were subsequently measured and compared to standards in the plate using a BIOPLEX MAGPIX Multiplex Reader.
T cells were stimulated with 10 nM AP1903 for 24 hours then supernatants were assayed for cytokine levels.

Question: `CC[C@H](C(=O)N1CCCC[C@H]1C(=O)O[C@H](CCc1ccc(OC)c(OC)c1)c1cccc(OCC(=O)NCCNC(=O)COc2cccc([C@@H](CCc3ccc(OC)c(OC)c3)OC(=O)[C@@H]3CCCCN3C(=O)[C@@H](CC)c3cc(OC)c(OC)c(OC)c3)c2)c1)c1cc(OC)c(OC)c(OC)c1` (relative stereo) [rimiducid, 2-Piperidinecarboxylic acid, 1-[(2S)-1-oxo-2-(3,4,5-trimethoxyphenyl)butyl]-, 1,2-ethanediylbis [imino(2-oxo-2,1-ethanediyl)oxy-3,1-phenylene[(1R)-3-(3,4-Dimethoxyphenyl)propylidene]] ester, [2S-[1(R*),2R*[S*[S*[1(R*),2R*]]]]]-(9Cl)] was tested. Which IL-6 production (B16-F10 melanoma cells; 100 nM AP1903) did it give?
Answer: Its IL-6 production is “response to AP1903 by producing IL-6”.

Question: What about the “IL-6 production without ligand” value (B16-F10 melanoma cells; presence and absence of AP1903) of the same molecule?
Answer: Its value is “transduced cells produce IL-6 without the addition of AP1903”.

Question: And the T cell proliferation (iMC-expressing T cells; IL-2 withdrawn)?
Answer: Its T cell proliferation is “no proliferation was observed”.

Question: What about the “T cell survival and expansion” value (iMC-expressing T cells; in the presence of exogenous IL-2) of the same molecule?
Answer: Its value is “increased T cell survival and cell expansion”.

Question: What about the IL-6 production (IC-21 macrophages; 100 nM AP1903) of the same molecule?
Answer: The IL-6 production was “response to AP1903 by producing IL-6”.

Question: And the “activation of IL-6, dependence on AP1903” value (IC-21 macrophages; macrophages)?
Answer: Its value is “occurred in the presence or absence of AP1903”.

Question: And the “cytokines and chemokines induced” value [1]?
Answer: The value was “GM-CSF, IFN-gamma, IL-13, IL-4, IL-5, IL-6, IL-8, IL-1beta, IL-12p70, IP10, MIP-1alpha, MIP-1beta, RANTES, and TNF-alpha”.

Question: What about the “cytokines and chemokines not induced” value [1] of the same molecule?
Answer: The value was “Basic-FGF, G-CSF, IL-1Ra, IL-2, IL-7, IL-9, IL-10, IL-15, IL-17RA, eotaxin, MCP-1, PDGF-bb and VEGF”.
